Assay in all cases: relative viability (nuclei count vs DMSO), 5 days (fraction); higher = more cells survive
Compound in experiment [1]: C(C(=O)C(=O)O)Br [Bromopyruvate] + O=C(CCCCCCC(=O)Nc1ccccc1)NO [Vorinostat] (partner 1 µM)
The essentials:
(§1)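 Five library-drug doses in √10 steps were combined with a fixed anchor-drug dose, or a single drug was given alone, by pin tool to lung cancer cell lines in 1536-well plates the day after seeding. Nuclei were stained and counted after 5 days. Relative viability is the nuclei count in treated wells over that in vehicle wells, taken as the median of duplicate plates.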

Compound in experiment [2]: CC(O)(CS(=O)(=O)c1ccc(F)cc1)C(=O)Nc1ccc(C#N)c(C(F)(F)F)c1 [Bicalutamide] + O=C(CCCCCCC(=O)Nc1ccccc1)NO [Vorinostat] (partner 1 µM)
The procedure, abridged:
as §1

Compound in experiment [3]: CC(O)(CS(=O)(=O)c1ccc(F)cc1)C(=O)Nc1ccc(C#N)c(C(F)(F)F)c1 [Bicalutamide] + Cc1nc(Nc2ncc(C(=O)Nc3c(C)cccc3Cl)s2)cc(N2CCN(CCO)CC2)n1 [Dasatinib] (partner 0.075 µM)
The procedure, abridged: as §1

Compound in experiment [4]: CC(O)(CS(=O)(=O)c1ccc(F)cc1)C(=O)Nc1ccc(C#N)c(C(F)(F)F)c1 [Bicalutamide] + Nc1ncn([C@H]2C[C@H](O)[C@@H](CO)O2)c(=O)n1 [Decitabine] (partner 2 µM)
The essentials: as §1

For NCI-H596, the relative viability in experiment [1] (first compound 1 µM) stood at 0.572; in experiment [1] (first compound 3.162 µM), 0.633; in experiment [1] (first compound 10 µM), 0.628; in experiment [1] (first compound 31.62 µM), 0.584; in experiment [1] (first compound 100 µM), 0.757; in experiment [2] (first compound 0.08 µM), 0.679. Besides, the relative viability worked out at 0.571 in experiment [2] (first compound 0.253 µM); 0.66 in experiment [2] (first compound 0.8 µM); 0.648 in experiment [2] (first compound 2.53 µM); 0.576 in experiment [3] (first compound 0.08 µM); 0.599 in experiment [3] (first compound 0.253 µM); 0.798 in experiment [3] (first compound 0.8 µM). The relative viability in experiment [3] (first compound 2.53 µM) amounted to 0.598; in experiment [4] (first compound 0.08 µM) it was 0.975; in experiment [4] (first compound 0.253 µM), 1.02; in experiment [4] (first compound 0.8 µM) it was 1.09; in experiment [4] (first compound 2.53 µM), 0.983.

Take SK-LU-1: the relative viability was determined as 0.744 in experiment [1] (first compound 1 µM); 0.81 in experiment [1] (first compound 3.162 µM); 0.728 in experiment [1] (first compound 10 µM); 0.632 in experiment [1] (first compound 31.62 µM); 0.713 in experiment [1] (first compound 100 µM); 0.871 in experiment [2] (first compound 0.08 µM). For the same cell line, the relative viability amounted to 0.856 in experiment [2] (first compound 0.253 µM); 0.82 in experiment [2] (first compound 0.8 µM); 0.699 in experiment [2] (first compound 2.53 µM); 0.175 in experiment [3] (first compound 0.08 µM); 0.206 in experiment [3] (first compound 0.253 µM); 0.177 in experiment [3] (first compound 0.8 µM). In addition, the relative viability in experiment [3] (first compound 2.53 µM) was found to be 0.169; in experiment [4] (first compound 0.08 µM), 0.689; in experiment [4] (first compound 0.253 µM) it was 0.611; in experiment [4] (first compound 0.8 µM), 0.791; in experiment [4] (first compound 2.53 µM), 0.61.

A-427: the relative viability in experiment [1] (first compound 1 µM) came out at 0.87; in experiment [1] (first compound 3.162 µM) it was 0.899; in experiment [1] (first compound 10 µM), 0.841; in experiment [1] (first compound 31.62 µM), 0.767; in experiment [1] (first compound 100 µM), 0.835; in experiment [2] (first compound 0.08 µM), 0.883. The relative viability in experiment [2] (first compound 0.253 µM) worked out at 0.9; in experiment [2] (first compound 0.8 µM), 0.866; in experiment [2] (first compound 2.53 µM) it was 0.842; in experiment [3] (first compound 0.08 µM), 0.643; in experiment [3] (first compound 0.253 µM), 0.631; in experiment [3] (first compound 0.8 µM) it was 0.791. The relative viability in experiment [3] (first compound 2.53 µM) came out at 0.607; in experiment [4] (first compound 0.08 µM) it was 0.608; in experiment [4] (first compound 0.253 µM) it was 0.533; in experiment [4] (first compound 0.8 µM) it was 0.666; in experiment [4] (first compound 2.53 µM) it was 0.562.

As for NCI-H460, the relative viability in experiment [1] (first compound 1 µM) is 0.74; in experiment [1] (first compound 3.162 µM), 0.71; in experiment [1] (first compound 10 µM) it was 0.599; in experiment [1] (first compound 31.62 µM), 0.524; in experiment [1] (first compound 100 µM), 0.565; in experiment [2] (first compound 0.08 µM), 0.763. Besides, the relative viability in experiment [2] (first compound 0.253 µM) turned out to be 0.439; in experiment [2] (first compound 0.8 µM), 0.92; in experiment [2] (first compound 2.53 µM) it was 0.779; in experiment [3] (first compound 0.08 µM), 0.498; in experiment [3] (first compound 0.253 µM) it was 0.44; in experiment [3] (first compound 0.8 µM), 0.646. For the same cell line, the relative viability in experiment [3] (first compound 2.53 µM) amounted to 0.483; in experiment [4] (first compound 0.08 µM) it was 0.55; in experiment [4] (first compound 0.253 µM) it was 0.468; in experiment [4] (first compound 0.8 µM) it was 0.598; in experiment [4] (first compound 2.53 µM) it was 0.484.

Regarding NCI-H1792, the relative viability amounted to 0.84 in experiment [3] (first compound 0.08 µM); 0.509 in experiment [3] (first compound 0.253 µM); 1.06 in experiment [3] (first compound 0.8 µM); 0.856 in experiment [3] (first compound 2.53 µM); 0.543 in experiment [4] (first compound 0.08 µM); 0.466 in experiment [4] (first compound 0.253 µM). Also, the relative viability in experiment [4] (first compound 0.8 µM) amounted to 0.618; in experiment [4] (first compound 2.53 µM), 0.548.

As for NCI-H2228, the relative viability in experiment [1] (first compound 1 µM) was 0.454; in experiment [1] (first compound 3.162 µM), 0.723; in experiment [1] (first compound 10 µM), 0.764; in experiment [1] (first compound 31.62 µM) it was 0.581; in experiment [1] (first compound 100 µM), 0.372; in experiment [2] (first compound 0.08 µM), 0.584. Moreover, the relative viability was determined as 0.795 in experiment [2] (first compound 0.253 µM); 0.993 in experiment [2] (first compound 0.8 µM); 0.581 in experiment [2] (first compound 2.53 µM); 0.476 in experiment [3] (first compound 0.08 µM); 0.479 in experiment [3] (first compound 0.253 µM); 0.522 in experiment [3] (first compound 0.8 µM). In experiment [3] (first compound 2.53 µM), the relative viability amounted to 0.55.

As for HCC-44, the relative viability in experiment [1] (first compound 1 µM) was 1.12; in experiment [1] (first compound 3.162 µM), 1.04; in experiment [1] (first compound 10 µM), 1.07; in experiment [1] (first compound 31.62 µM) it was 1.1; in experiment [1] (first compound 100 µM), 1.13; in experiment [2] (first compound 0.08 µM), 1.12. For the same cell line, the relative viability in experiment [2] (first compound 0.253 µM) is 1.21; in experiment [2] (first compound 0.8 µM), 1.1; in experiment [2] (first compound 2.53 µM) it was 1.12; in experiment [4] (first compound 0.08 µM), 0.967; in experiment [4] (first compound 0.253 µM), 0.911; in experiment [4] (first compound 0.8 µM), 0.942. The relative viability in experiment [4] (first compound 2.53 µM) came out at 0.959.

For NCI-H1648, the relative viability in experiment [1] (first compound 1 µM) stood at 0.324; in experiment [1] (first compound 3.162 µM), 0.566; in experiment [1] (first compound 10 µM), 0.563; in experiment [1] (first compound 31.62 µM), 0.766; in experiment [1] (first compound 100 µM), 0.314; in experiment [2] (first compound 0.8 µM) it was 0.698. Besides, the relative viability worked out at 0.425 in experiment [2] (first compound 2.53 µM), 0.475 in experiment [4] (first compound 0.8 µM) and 0.458 in experiment [4] (first compound 2.53 µM).

In the case of NCI-H1563, the relative viability in experiment [3] (first compound 0.08 µM) was 0.449; in experiment [3] (first compound 0.253 µM), 0.456; in experiment [3] (first compound 0.8 µM), 0.512; in experiment [3] (first compound 2.53 µM) it was 0.409.

Take A549: the relative viability in experiment [4] (first compound 0.08 µM) worked out at 0.351; in experiment [4] (first compound 0.253 µM), 0.271; in experiment [4] (first compound 0.8 µM), 0.259; in experiment [4] (first compound 2.53 µM) it was 0.248.

With NCI-H1623, the values for the relative viability in experiment [3] (first compound 0.253 µM), in experiment [3] (first compound 0.8 µM) and in experiment [3] (first compound 2.53 µM) were 0.524, 0.562 and 0.54, respectively.

As for IA-LM, the relative viability in experiment [1] (first compound 1 µM) is 0.964; in experiment [1] (first compound 3.162 µM) it was 0.975; in experiment [1] (first compound 10 µM) it was 1.15; in experiment [1] (first compound 31.62 µM), 0.861; in experiment [1] (first compound 100 µM) it was 0.696; in experiment [2] (first compound 0.08 µM), 0.985. Besides, the relative viability amounted to 0.803 in experiment [2] (first compound 0.253 µM), 1.16 in experiment [2] (first compound 0.8 µM) and 0.892 in experiment [2] (first compound 2.53 µM).

CAL-12T: the relative viability in experiment [1] (first compound 1 µM) was found to be 0.696; in experiment [1] (first compound 3.162 µM), 0.769; in experiment [1] (first compound 10 µM), 0.762; in experiment [1] (first compound 31.62 µM), 0.705; in experiment [1] (first compound 100 µM), 0.489; in experiment [2] (first compound 0.08 µM), 0.945. Further, the relative viability in experiment [2] (first compound 0.253 µM) worked out at 0.607; in experiment [2] (first compound 0.8 µM), 0.915; in experiment [2] (first compound 2.53 µM) it was 0.623; in experiment [3] (first compound 0.08 µM), 0.492; in experiment [3] (first compound 0.253 µM), 0.325; in experiment [3] (first compound 0.8 µM) it was 0.445. The relative viability in experiment [3] (first compound 2.53 µM) was 0.256.

The record behind these values is the supplement of paper PMC10307832.
